In patent publication US8110365B2, “Compositions and methods for detecting and treating renal injury and inflammation” (Rhode Island Hospital, priority 2006, dated 2012):
Entries after “also recorded” stand apart in the source; their conditions may differ.

What was measured:
NFkB target genes = assay: Real time RT-PCR of NFkB target genes in TNF-a stimulated HKC cells; assay type: cell-based, human
Method: Total RNA was extracted from approximately 1×10^6 cultured HKC cells using TRIzol solution (Invitrogen, Carlsbad, Calif.) according to the instructions specified by the manufacturer. RNA was then diluted to 3μg/μl in RNase free distilled water. The first strand cDNA was prepared using 3 μg RNA, Superscript RT reverse transcriptase (Invitrogen) and oligo (dT) primer according to the manufacture's instruction. Quantitative real time PCR was carried out on a Stratagene Mx4000® multiplex quantitative PCR system (Stratagene, La Jolla, Calif.) using primers specific for human MCP-1, RANTES, IkBa, Bcl-2 and GAPDH. All reactions were performed in triplicate with Brilliant® SYBR® Green QPCR Master Mix (Stratagene). Fluorescence values of SYBR Green I dye, representing the amount of product amplified at that point in the reaction, were recorded in real time at both the annealing step and the extension step of each cycle. The Ct value, defined as the point at which the fluorescence signal was statistically significant above background, was calculated for each amplicon in each experimental sample using Stratagene Mx4000 software. This value was then used to determine the relative amount of amplification in each sample by interpolating from the standard curve. Transcript level of each specific gene was normalized to GAPDH amplification.

GSK3b [1] = target: T1, GSK3b (Homo sapiens, UniProt P49841); assay: Inhibitory phosphorylation of GSK3b in HKC cells (immunoblot); assay type: cell-based; parameters: endogenous in cells; host or cells: HKC-8
T1 sequence (P49841 whole entry): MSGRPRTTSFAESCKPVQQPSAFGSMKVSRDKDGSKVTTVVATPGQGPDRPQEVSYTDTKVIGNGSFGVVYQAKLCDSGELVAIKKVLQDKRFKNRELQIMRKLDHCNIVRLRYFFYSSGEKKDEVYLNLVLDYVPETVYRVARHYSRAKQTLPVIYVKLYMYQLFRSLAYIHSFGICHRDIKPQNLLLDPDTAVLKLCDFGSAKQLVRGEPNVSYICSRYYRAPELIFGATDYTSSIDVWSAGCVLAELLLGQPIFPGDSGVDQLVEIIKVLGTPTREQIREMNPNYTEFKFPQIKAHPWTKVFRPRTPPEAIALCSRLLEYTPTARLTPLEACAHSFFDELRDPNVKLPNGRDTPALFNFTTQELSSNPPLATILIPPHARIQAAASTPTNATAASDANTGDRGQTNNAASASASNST
Method: (§1) Human proximal TEC (HKC-8) (courtesy of Dr. L. Racusen of John Hopkins University, Baltimore, Md.) were maintained in Dulbecco's modified Eagle's medium (DMEM)/F12 supplemented with 5% fetal bovine serum (FBS). Cells were plated at approximately 70% confluence in the media containing 5% FBS for 24 h and then underwent serum starvation for another 24 h. Human recombinant HGF and human recombinant TNF-α (R&D systems, Minneapolis, Minn.) were added to the culture with fresh serum-free medium at a final concentration of 20 ng/ml and 2 ng/ml respectively, or otherwise as indicated. Cell viability was assessed by Trypan blue exclusion. At different time points, cells and conditioned media were harvested for further investigation.
(§2) After different treatments, HKC cells were washed with PBS and lysed with RIPA buffer supplemented with protease inhibitors [1% Nonidet P-40, 0.1% SDS, 100 ug/ml phenylmethysulfonyl fluoride (PMSF), 0.5% sodium deoxycholate, ImM sodium orthovanadate, 2 ug/ml aprotin, 2 ug/ml leupeptin, 5mM EDTA in PBS]. Protein concentration was determined by using a bicinchoninic acid protein assay kit (Sigma). All samples with equal amounts of total protein (50 ug/ml) were fractionated by 7.5˜15% SDS-polyacrylamide gels under reducing condition and analyzed by western immunoblot as described previously (30). The antibodies against p-GSK3b, p-NFkB p65, p-IkBa were purchased from Cell Signaling Technology (Beverly, Mass.) and those for GSK3b, hemagglutin were from Santa Cruz Biotechnology (Santa Cruz, Calif.).

endothelial E-selectin = assay: Acute inflammation induced by bolus injection of TNF-α in vivo; conditions: infusion of exogenous HGF
NF-kB and IkB = NF-kB and IkB phosphorylation and IkB degradation in endothelial cells; assay type: cell-based
Method: In certain embodiments, NF-kB p65 phosphorylation is assessed as follows. Cell lysates with equal amounts of total protein are immunoblotted for phosphorylated NF-kB p65 or total p65. Anti-phosphorylated NF-kB p65 antibody is commercially available, e.g., from Cell Signaling, MA. Densitometric results of phosphorylated NF-kB p65 and total p65 bands as well as the ratio of pp65/p65 are compared between different transfections at different time points.
In certain embodiments, IkB phosphorylation and degradation is evaluated as follows. Cell lysates with equal amounts of total protein are immunoblotted for phosphorylated IkBa (anti-phosphorylated IkBa antibody is available from Cell Signaling. MA) or total IkBa. Densitometric results of phosphorylated IkBa and total IkBa bands are compared across the different treatments and time points.

GSK3b [2] = target: T1, GSK3b; assay: Inhibitory phosphorylation of GSK3b in HUVEC (immunoblot); assay type: cell-based; parameters: endogenous in cells; conditions: LiCl 20 mM, HGF 100 ng/ml
[3] = system: NF-κB p65 binding to E-selectin promoter; assay: DNA affinity precipitation and ChIP of NF-κB p65 at the E-selectin promoter in HUVEC; assay type: cell-based, human; conditions: 4 h after treatment
Method: (§3) To explore the role of GSK3b in HGF suppression of inflammation, we examined the effect of HGF on NF-κB activation in endothelial cells (FIG. 8A˜C) and TEC (FIG. 8D). […] (FIG. 8A). To determine whether HGF modulation of NF-κB transcriptional activity alters target gene (E-selectin) levels, DNA affinity precipitation assay was carried out at 4 h after treatment. Proteins in cell lysates were pulled down by biotin labeled oligonucleotides with the sequence of the E-selectin promoter region spanning the κB elements. […] To further examine the effect of HGF on NF-κB binding to the E-selectin gene in vivo, chromatin immunoprecipitation (ChIP) was applied at 4 h after treatments (FIG. 8C).

[4] = system: phosphatidylinositol 3-kinase (PI3K)-Akt; assay: PI3K-Akt activation in HUVEC; assay type: cell-based, human
MCP-1 and RANTES = assay: Chemokine expression in immortalized rat proximal tubular cells (IRPTC); assay type: cell-based
E-selectin = assay: TNF-α induced E-selectin expression in HUVEC; assay type: cell-based, human
GSK3b [5] = target: T2, GSK3b (Rattus norvegicus, UniProt P18266); assay: Renal GSK3b expression in the kidney; assay type: in vivo
T2 construct: from tissue; host or cells: rat kidney (homogenate)
T2 sequence (P18266 whole entry): as the sequence (P49841 whole entry) above, with V240M, T390P, T392A, A400T, T402A counted along it
Method: In certain embodiments, measurement of GSK level and activity in tissue samples is carried out as follows. Total expression of GSK3b, is measured by western immunoblot in kidney homogenates using a commercially available mouse monoclonal antibody against rat GSK3b (Santa Cruz Biotechology). Densitometric analysis of immunoblot bands is used to compare protein abundance of GSK3b in remnant kidneys and controls at each time point.

NF-κB = NF-κB luciferase reporter gene assay in endothelial cells; assay type: cell-based, human; conditions: 24 h
Method: as §3

NFkB p65 = assay: TNF-a induced NFkB p65 phosphorylation in HKC cells (immunoblot); assay type: cell-based, human
Method: as §1, §2

endothelial cells = assay: Monocyte adhesion to TNF-α-activated endothelial monolayers; assay type: cell-based, human
PI3K-Akt = PI3K-Akt activation in HKC / TEC; assay type: cell-based, human

Substance: HGF: Human recombinant HGF (R&D systems); induces inhibitory phosphorylation of GSK3b
- suppressive effect of HGF on TNF-a induced MCP-1 and RANTES mRNA expression (NFkB target genes; HKC cells expressing S9A): obliterated in cells expressing S9A; also recorded: obliterated in cells expressing the mutant uninhibitable GSK3b
- suppressive effect of HGF on TNF-a induced MCP-1 and RANTES mRNA expression (NFkB target genes; HKC cells transfected with EV or WT): present in cells transfected with EV or WT
- TNF-a induced mRNA expression of IkBa and Bcl-2 (NFkB target genes; HKC cells, 12 h): not remarkably affected
- TNF-a induced mRNA expression of MCP-1 and RANTES (NFkB target genes; HKC cells, 12 h): strikingly attenuated TNF-a induced mRNA expression of MCP-1 and RANTES; also recorded: selectively regulates TNF-a induced transcription of specific NFkB target genes
- inhibitory phosphorylation of GSK3b (S9) (GSK3b [1]): inhibited GSK3, by phosphorylation at Ser-9; also recorded: induce GSK3b phosphorylation at Ser9; also recorded: induces inhibitory phosphorylation of GSK3b at S9
- endothelial expression of E-selectin (endothelial E-selectin): reduced endothelial expression of E-selectin induced by bolus injection of TNF-α
- sequestration of circulating macrophages in the kidney (endothelial E-selectin): less sequestration of circulating macrophages in the kidney
- NF-kB and IkB phosphorylation and IkB degradation (NF-kB and IkB): inhibition of NF-kB and IkB phosphorylation and IkB degradation
- inhibitory phosphorylation of GSK3b at serine 9 (GSK3b [2]): inhibited its downstream transducer, GSK-3b, by phosphorylation at serine-9; also recorded: inactivates GSK3b by inhibitory phosphorylation at ser-9; also recorded: induces inhibitory phosphorylation of GSK3b
- TNF-α induced NF-κB binding to E-selectin promoter / gene [3]: counteracted NF-kB interaction with kB elements at the E-selectin gene level; also recorded: significantly blunted TNF-α induced NF-κB binding to E-selectin promoter sequence; also recorded: prevents NF-κB mediated transcription of E-selectin; also recorded: blunts NF-kB activation and its target E-selectin gene
- PI3K-Akt activation [4]: activated phosphatidylinositol 3-kinase (PI3K)-Akt
- basal and TNF-α induced expression of MCP-1 and RANTES (MCP-1 and RANTES): suppressed basal and TNF-α induced expression of MCP-1 and RANTES
- HGF inhibition of TNF-a induced E-selectin expression (E-selectin; HUVEC expressing uninhibitable mutant S9A-GSK3b): abolished HGF suppression of E-selectin; also recorded: abolished the suppressive action of HGF; also recorded: abolishes HGF inhibition of endothelial E-selectin
- HGF inhibition of TNF-a induced E-selectin expression (E-selectin; HUVEC transfected with pcDNA3 or HA-WT-GSK3b): HGF inhibition of E-selectin expression was evident
- TNF-α induced E-selectin expression (E-selectin; HUVEC, lithium 20 mM, HGF 100 ng/ml, TNF-a 0.5 ng/ml): suppressed endothelial expression of E-selectin; also recorded: suppressed TNF-α-induced expression of E-selectin; also recorded: attenuates TNF-α elicited E-selectin expression; also recorded: attenuates TNF-a (0.5 ng/ml) elicited E-selectin expression
- renal GSK3b expression (GSK3b [5]): markedly decreased GSK3b expression
- TNF-α induced NF-κB reporter gene (transcription) activity (NF-κB): suppressed TNF-a induced NF-kB reporter gene activity; also recorded: significantly reduced TNF-α induced NF-κB transcription activity; also recorded: blunts NF-kB activation
- TNF-a induced p65 phosphorylation at other sites (S276, S536) (NFkB p65; HKC cells): had minimal effect on S276
- HGF inhibition of TNF-a-induced phosphorylation of p65 at S468 (NFkB p65; HKC cells expressing GSK3b S9A): strikingly abolished in cells expressing S9A; also recorded: obliterated in HKC cells expressing GSK3b S9A
- TNF-a induced p65 phosphorylation at S468 (NFkB p65; HKC cells, TNF-a 2 ng/ml, VPA 1 mM, 10 uM for 60 minutes): markedly abolished TNF-a induced phosphorylation of S468 in a time dependent fashion; also recorded: suppresses NFkB phosphorylation specifically at S468
- monocytic adhesion to endothelial cells (endothelial cells): abrogated monocyte adhesion to TNF-α-activated endothelial monolayers; also recorded: inhibited E-selectin mediated monocytic adhesion to endothelial cells
- PI3K-Akt activation (PI3K-Akt): elicited PI3K-Akt activation; also recorded: activates PI3K-Akt in TEC
